Reference: patent US9856240B2, “Compounds that modulate intracellular calcium” (CalciMedica, Inc., priority 2011, dated 2018)

Legend:
[1] = target: T1, recombinant human STIM1 and Orai1 (HEK-293 cells) (Homo sapiens, UniProt Q96D31); assay: Fluorescence-based assay of store-operated calcium entry in Orai1/STIM1 stable cells; format: cell-based; design: key to Orai1/STIM1 (IC50, μmol): A < 0.6 μmol; 0.6 μmol ≦ B ≦ 1.2 μmol; C > 1.2 μmol; — = no fit; details: for IC50: FLIPR fluo-4, read-out: Orai1/STIM1 (IC50, μmol); for Orai1/STIM1 (IC50, μmol): FLIPR fluo-4
T1 construct: expressed in transfected cells; host or cells: HEK-293 cells stably expressing both proteins
T1 sequence (Q96D31 whole entry): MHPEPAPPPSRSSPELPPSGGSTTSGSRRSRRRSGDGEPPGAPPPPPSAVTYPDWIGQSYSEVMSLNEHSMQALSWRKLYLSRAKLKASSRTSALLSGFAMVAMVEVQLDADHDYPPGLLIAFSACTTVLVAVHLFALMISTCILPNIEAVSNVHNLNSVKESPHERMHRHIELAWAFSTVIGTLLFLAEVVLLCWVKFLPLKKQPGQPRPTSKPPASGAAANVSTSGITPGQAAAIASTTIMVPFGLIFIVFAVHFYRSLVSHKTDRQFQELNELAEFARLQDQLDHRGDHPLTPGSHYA
Protocol: A. Fluorescence-Based Assay of Store-Operated Calcium Entry in Orai1/STIM1 Stable Cells.
Cells stably expressing recombinant human STIM1 and Orai1 are generated by transfecting a human Orai1 expression plasmid (pcDNA3.1-Orai1-cmyc) into HEK-293 cells stably overexpressing human STIM1 (Roos et al. 2005 JCB 169(3): 435-445). Colonies of cells stably expressing both STIM1 and Orai1 proteins are selected and then subcloned by limiting dilution. Cells were cultured at 37° C./6% CO2 in complete medium with 10% FBS and appropriate selection markers.
The day prior to performing the assay Orai1/STIM1 stable cells are plated in 50 μL of complete medium at 90-95% confluence in a 384 well plate. Cells are grown at 37° C./6% CO2 overnight. On the day of the assay, 1.5 μM fluo-4-AM (Invitrogen) in complete medium is added to the cells, which are then incubated for 1 hour at RT. Cells are washed once in Ca^2+-free HBSS (Hank's buffered saline solution) and 35 μl of Ca^2+-free HBSS is added to each well. Test compounds are added to wells in a 10 μL Ca^2+-free HBSS solution, prepared at 4.5× the desired final concentration, and incubated for 30 minutes at RT. The initial baseline fluorescence signal is then measured with a FLIPR^384 (Molecular Devices) plate reader. Calcium entry is initiated by adding 5 μl of 10× CaCl2 (10 mM) in HBSS, and changes in cellular fluorescence are measured with the FLIPR^384 plate reader. In each well, the magnitude of the fluorescence signal as a result of calcium entry into the cell is determined by calculating the difference between the peak fluorescence signal measured after calcium addition and the initial baseline fluorescence signal (designated Peak-Basal). IC50 values are typically calculated as the concentration that inhibited 50% of the Peak-Basal signal (Table A).

[2] = tested on: store-operated calcium entry in RBL-2H3 cells; assay: Fluorescence-based assay of store-operated calcium entry in RBL-2H3 cells; format: cell-based; details: Rattus norvegicus, thapsigargin, FLIPR Fluo-4, read-out: RBL-2H3 (IC50, μmol)
Protocol: B. Fluorescence-Based Assay of Store-Operated Calcium Entry in RBL-2H3 Cells.
RBL-2H3 cells are obtained from ATCC and maintained in complete medium with 10% FBS at 37° C./6% CO2.
The day prior to performing the assay, RBL-2H3 cells are plated in 50 μL of complete medium in a 384 well plate. Cells are grown at 37° C./6% CO2 overnight and grow to 50-60% confluence by the next day. On the assay day, 1.5 μM Fluo-4-AM dye (Invitrogen) in complete medium is added and incubated for 1 hour at RT. Cells are washed twice in Ca^2+-free HBSS buffer and 35 μL Ca^2+-free HBSS buffer is added to each well. 10 μL of a test compound prepared in a Ca^2+-free HBSS solution at 4.5× of the desired concentration is added to a well and incubated for 5 minutes at RT. 10 μL of thapsigargin prepared in a Ca^2+-free HBSS solution at 5.5× of the desired concentration (5.5 uM) is added to each well and incubated for an additional 25 minutes. The initial baseline fluorescence signal is measured with a FLIPR^384 (Molecular Devices) plate reader. 5 μL of 12× calcium in HBSS (12 mM) is added and changes in cellular fluorescence are measured with the FLIPR^384 plate reader. In each well, the change in the fluorescent signal as a function of time due to calcium entry into the cell is determined by calculating the difference between the fluorescent signal measured 7 seconds after calcium addition and the initial baseline fluorescence signal at time zero (t=0). This parameter is designated Upslope. The IC50 value is calculated as the concentration at which 50% of the Upslope is inhibited.

IC50 [1]	IC50 [2]	Orai1/STIM1 (IC50, μmol) [1]	Structure (SMILES)
< 0.6 µM	< 0.6 µM		CCc1nnsc1C(=O)Nc1ccc(-c2cc3c(cc2Cl)OC(F)(F)O3)cn1 [Example 14, N-(5-(6-chloro-2,2-difluorobenzo[d][1,3]dioxol-5-yl)pyridin-2-yl)-4-ethyl-1,2,3-thiadiazole-5-carboxamide]
< 0.6 µM	< 0.6 µM		Cc1nscc1C(=O)Nc1ccc(-c2cc3c(cc2Cl)OC(F)(F)O3)cn1 [Example 15, N-(5-(6-chloro-2,2-difluorobenzo[d][1,3]dioxol-5-yl)pyridin-2-yl)-3-methylisothiazole-4-carboxamide]
	> 1.2 µM	—	O=C(Nc1ccc(-c2cc3c(cc2Cl)OC(F)(F)O3)cn1)c1nsc(Cl)c1Cl [Example 16, 4,5-dichloro-N-(5-(6-chloro-2,2-difluorobenzo[d][1,3]dioxol-5-yl)pyridin-2-yl)isothiazole-3-carboxamide]
> 1.2 µM	< 0.6 µM		Cc1nc(C(F)(F)F)c(C(=O)Nc2ccc(-c3cc4c(cc3Cl)OC(F)(F)O4)cn2)s1 [Example 17, N-(5-(6-chloro-2,2-difluorobenzo[d][1,3]dioxol-5-yl)pyridin-2-yl)-2-methyl-4-(trifluoromethyl)thiazole-5-carboxamide]
		—	Cc1nc(C(=O)Nc2ccc(-c3cc4c(cc3Cl)OC(F)(F)O4)cn2)c(C(F)(F)F)o1 [Example 19, N-(5-(6-chloro-2,2-difluorobenzo[d][1,3]dioxol-5-yl)pyridin-2-yl)-2-methyl-5-(trifluoromethyl)oxazole-4-carboxamide]
> 1.2 µM			Cc1nc(C)c(C(=O)Nc2ccc(-c3cc4c(cc3Cl)OC(F)(F)O4)cn2)o1 [Example 21, N-(5-(6-chloro-2,2-difluorobenzo[d][1,3]dioxol-5-yl)pyridin-2-yl)-2,4-dimethyloxazole-5-carboxamide]
		—	Cn1ncc(C(=O)Nc2cnc(-c3cc4c(cc3Cl)OC(F)(F)O4)cn2)c1C(F)(F)F [Example 22, N-(5-(6-chloro-2,2-difluorobenzo[d][1,3]dioxol-5-yl)pyrazin-2-yl)-1-methyl-5-(trifluoromethyl)-1H-pyrazole-4-carboxamide]
		—	Cc1nn(C)c(C(=O)Nc2cnc(-c3cc4c(cc3Cl)OC(F)(F)O4)cn2)c1Cl [Example 23, 4-chloro-N-(5-(6-chloro-2,2-difluorobenzo[d][1,3]dioxol-5-yl)pyrazin-2-yl)-1,3-dimethyl-1H-pyrazole-5-carboxamide]
	> 1.2 µM		CCn1nc(C)cc1C(=O)Nc1cnc(-c2cc3c(cc2Cl)OC(F)(F)O3)cn1 [Example 26]
		—	Cn1cc(Cl)c(C(=O)Nc2cnc(-c3cc4c(cc3Cl)OC(F)(F)O4)cn2)n1 [Example 28, 4-chloro-N-(5-(6-chloro-2,2-difluorobenzo[d][1,3]dioxol-5-yl)pyrazin-2-yl)-1-methyl-1H-pyrazole-3-carboxamide]
		—	Cc1oncc1C(=O)Nc1cnc(-c2cc3c(cc2Cl)OC(F)(F)O3)cn1 [Example 30, N-(5-(6-chloro-2,2-difluorobenzo[d][1,3]dioxol-5-yl)pyrazin-2-yl)-5-methylisoxazole-4-carboxamide]
		—	Cc1cc2c(cc1-c1cnc(NC(=O)c3c(Cl)c(C)nn3C)cn1)OC(F)(F)O2 [Example 36, 4-chloro-N-(5-(2,2-difluoro-6-methylbenzo[d][1,3]dioxol-5-yl)pyrazin-2-yl)-1,3-dimethyl-1H-pyrazole-5-carboxamide]

Further lines, the molecule ahead of its results:

Structure (SMILES)	IC50 [1]	IC50 [2]	Orai1/STIM1 (IC50, μmol) [1]
Cn1cccc1C(=O)Nc1ccc(-c2cc3c(cc2Cl)OC(F)(F)O3)cn1 [Example 1, N-(5-(6-chloro-2,2-difluorobenzo[d][1,3]dioxol-5-yl)pyridin-2-yl)-1-methyl-1H-pyrrole-2-carboxamide]	0.6 to 1.2 µM	0.6 to 1.2 µM	
Cc1nn(C)c(C(=O)Nc2ccc(-c3cc4c(cc3Cl)OC(F)(F)O4)cn2)c1Cl [Example 2, 4-chloro-N-(5-(6-chloro-2,2-difluorobenzo[d][1,3]dioxol-5-yl)pyridin-2-yl)-1,3-dimethyl-1H-pyrazole-5-carboxamide]	> 1.2 µM	> 1.2 µM	
Cn1nc(C(F)(F)F)c(Cl)c1C(=O)Nc1ccc(-c2cc3c(cc2Cl)OC(F)(F)O3)cn1 [Example 3, 4-chloro-N-(5-(6-chloro-2,2-difluorobenzo[d][1,3]dioxol-5-yl)pyridin-2-yl)-1-methyl-3-(trifluoromethyl)-1H-pyrazole-5-carboxamide]		< 0.6 µM	—
Cn1ncc(C(=O)Nc2ccc(-c3cc4c(cc3Cl)OC(F)(F)O4)cn2)c1C(F)(F)F [Example 4, N-(5-(6-chloro-2,2-difluorobenzo[d][1,3]dioxol-5-yl)pyridin-2-yl)-1-methyl-5-(trifluoromethyl)-1H-pyrazole-4-carboxamide]		> 1.2 µM	—
Cc1onc(C(=O)Nc2ccc(-c3cc4c(cc3Cl)OC(F)(F)O4)cn2)c1C [Example 5, N-(5-(6-chloro-2,2-difluorobenzo[d][1,3]dioxol-5-yl)pyridin-2-yl)-4,5-dimethylisoxazole-3-carboxamide]		0.6 to 1.2 µM	—
CCn1nc(C)cc1C(=O)Nc1ccc(-c2cc3c(cc2Cl)OC(F)(F)O3)cn1 [Example 6, N-(5-(6-chloro-2,2-difluorobenzo[d][1,3]dioxol-5-yl)pyridin-2-yl)-1-ethyl-3-methyl-1H-pyrazole-5-carboxamide]	> 1.2 µM	> 1.2 µM	
Cc1cc(C(=O)Nc2ccc(-c3cc4c(cc3Cl)OC(F)(F)O4)cn2)n(C)n1 [Example 7, N-(5-(6-chloro-2,2-difluorobenzo[d][1,3]dioxol-5-yl)pyridin-2-yl)-1,3-dimethyl-1H-pyrazole-5-carboxamide]	0.6 to 1.2 µM	> 1.2 µM	
Cn1cc(Cl)c(C(=O)Nc2ccc(-c3cc4c(cc3Cl)OC(F)(F)O4)cn2)n1 [Example 8, 4-chloro-N-(5-(6-chloro-2,2-difluorobenzo[d][1,3]dioxol-5-yl)pyridin-2-yl)-1-methyl-1H-pyrazole-3-carboxamide]	> 1.2 µM	> 1.2 µM	
Cn1ncc(Cl)c1C(=O)Nc1ccc(-c2cc3c(cc2Cl)OC(F)(F)O3)cn1 [Example 9, 4-chloro-N-(5-(6-chloro-2,2-difluorobenzo[d][1,3]dioxol-5-yl)pyridin-2-yl)-1-methyl-1H-pyrazole-5-carboxamide]	0.6 to 1.2 µM	< 0.6 µM	
Cc1oncc1C(=O)Nc1ccc(-c2cc3c(cc2Cl)OC(F)(F)O3)cn1 [Example 10, N-(5-(6-chloro-2,2-difluorobenzo[d][1,3]dioxol-5-yl)pyridin-2-yl)-5-methylisoxazole-4-carboxamide]			—
Cc1noc(C)c1C(=O)Nc1ccc(-c2cc3c(cc2Cl)OC(F)(F)O3)cn1 [Example 11, N-(5-(6-chloro-2,2-difluorobenzo[d][1,3]dioxol-5-yl)pyridin-2-yl)-3,5-dimethylisoxazole-4-carboxamide]	< 0.6 µM	< 0.6 µM	
CCn1nccc1C(=O)Nc1ccc(-c2cc3c(cc2Cl)OC(F)(F)O3)cn1 [Example 12, N-(5-(6-chloro-2,2-difluorobenzo[d][1,3]dioxol-5-yl)pyridin-2-yl)-1-ethyl-1H-pyrazole-5-carboxamide]	0.6 to 1.2 µM	0.6 to 1.2 µM	
O=C(Nc1ccc(-c2cc3c(cc2Cl)OC(F)(F)O3)cn1)c1ccnn1C(F)F [Example 13, N-(5-(6-chloro-2,2-difluorobenzo[d][1,3]dioxol-5-yl)pyridin-2-yl)-1-(difluoromethyl)-1H-pyrazole-5-carboxamide]	0.6 to 1.2 µM	> 1.2 µM	
